Source: patent publication US11447465B2, “Pharmaceutical compounds for treatment of medical disorders” (Achillion Pharmaceuticals, Inc., priority 2017, dated 2022)
Read-outs that look alike come from different tables or passages of the source.

Molecular target: Human Factor D (Homo sapiens (Human), UniProt P00746)
Experiment: Human Factor D Assay
Assay type: biochemical
Procedure: Human Factor D (purified from human serum, Complement Technology, Inc.) at 80 nM final concentration is incubated with test compound at various concentrations for 5 min at room temperature in 50 mM Tris, 1M NaCl, pH 7.5. A synthetic substrate Z-L-Lys-SBzl and DTNB (Ellman's reagent) are added to final concentrations of 100 μM each. Absorbance at 405 nm (A405) is recorded at 30 second intervals for 30 min using a microplate spectrophotometer. IC50 values are calculated by nonlinear regression of Complement Factor D reaction rates as a function of test compound concentration.

[1] = Table 5, Human Factor D 80 nM, substrate Z-L-Lys-SBzl, read-out: IC50 (Stars)
[2] = Table 6, Human Factor D 80 nM, substrate Z-L-Lys-SBzl, read-out: IC5 (Stars)

Chain of Human Factor D (P00746 26-253): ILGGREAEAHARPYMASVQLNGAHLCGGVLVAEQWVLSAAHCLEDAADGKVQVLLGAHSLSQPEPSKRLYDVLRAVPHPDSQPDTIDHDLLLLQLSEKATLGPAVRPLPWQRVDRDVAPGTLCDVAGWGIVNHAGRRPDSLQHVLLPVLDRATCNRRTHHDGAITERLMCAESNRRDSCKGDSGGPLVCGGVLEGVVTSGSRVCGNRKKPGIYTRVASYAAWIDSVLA

| SMILES | IC50 [1] [µM] | IC50 (Table 7, read-out: IC5 (Stars)) [µM] | other results |
| --- | --- | --- | --- |
| CC(=O)c1nn(CC(=O)N2C[C@H](F)C[C@H]2C(=O)Nc2cccc(Br)n2)c2ccc(S(C)(=N)=O)cc12 (stereo partly drawn) [Compound T-3, (2S,4R)-1-(2-(3-acetyl-5-(S-methylsulfonimidoyl)-1H-indazol-1-yl)acetyl)-N-(6-bromopyridin-2-yl)-4-fluoropyrrolidine-2-carboxamide] | < 1 |  |  |
| CC(=O)c1nn(CC(=O)N2[C@H](C(=O)Nc3nc(Br)ccc3C)C[C@@]3(C)C[C@@H]23)c2ccc(OCCS(=O)(=O)CC3(C)COC3)cc12 [Compound T-59, (1R,5R)-2-(2-(3-acetyl-5-(2-(((3-methyloxetan-3-yl)methyl)sulfonyl)ethoxy)-1H-indazol-1-yl)acetyl)-N-(6-bromo-3-methylpyridin-2-yl)-5-methyl-2-azabicyclo[3.1.0]hexane-3-carboxamide] |  |  | IC50 [2]: < 1 µM |
| CC(=O)O[C@@H]1CO[C@H]2[C@@H]1OC[C@H]2Oc1ccc2c(c1)c(C(C)=O)nn2CC(=O)N1C[C@H](F)C[C@H]1C(=O)Nc1nc(Br)ccc1C [Compound T-53, (3R,3aR,6R,6aR)-6-((3-acetyl-1-(2-((2S,4R)-2-((6-bromo-3-methylpyridin-2-yl)carbamoyl)-4-fluoropyrrolidin-1-yl)-2-oxoethyl)-1H-indazol-5-yl)oxy)hexahydrofuro[3,2-b]furan-3-yl acetate] |  |  | IC50 [2]: < 1 µM |
| Cc1ccc(Br)nc1NC(=O)[C@@H]1C[C@@]2(C)C[C@H]2N1C(=O)Cn1nc(N2CCC2=O)c2ccncc21 [Compound T-87, (1R,3S,5R)-N-(6-bromo-3-methylpyridin-2-yl)-5-methyl-2-(2-(3-(2-oxoazetidin-1-yl)-1H-pyrazolo[3,4-c]pyridin-1-yl)acetyl)-2-azabicyclo[3.1.0]hexane-3-carboxamide] |  | < 1 |  |
| CC(=O)c1nn(CC(=O)N2[C@H](C(=O)Nc3nc(Br)ccc3C)C[C@@]3(CNC(=O)COCCOCCNC(=O)COCCOCCNC(=O)CCCCCCCCCCCCCCCCC(=O)O)C[C@@H]23)c2ccc(OC(=O)NC3CC3)cc12 [Compound T-128, 1-((1R,3S,5R)-2-(2-(3-acetyl-5-((cyclopropylcarbamoyl)oxy)-1H-indazol-1-yl)acetyl)-3-((6-bromo-3-methylpyridin-2-yl)carbamoyl)-2-azabicyclo[3.1.0]hexan-5-yl)-3,12,21-trioxo-5,8,14,17-tetraoxa-2,11,20-triazaoctatriacontan-38-oic acid] |  | < 1 |  |
| CC(=O)c1nn(CC(=O)N2[C@H](C(=O)Nc3nc(Br)ccc3C)C[C@@]3(C)C[C@@H]23)c2cc3nc(C)sc3cc12 [Compound T-103, (1R,3S,5R)-2-(2-(3-acetyl-6-methyl-1H-thiazolo[5,4-f]indazol-1-yl)acetyl)-N-(6-bromo-3-methylpyridin-2-yl)-5-methyl-2-azabicyclo[3.1.0]hexane-3-carboxamide] |  | < 1 |  |
| Cc1ccc(Br)nc1NC(=O)[C@@H]1C[C@@]2(CNC(=O)COCCOCCNC(=O)COCCOCCNC(=O)CC[C@H](NC(=O)CCCCCCCCCCCCCCCCC(=O)O)C(=O)O)C[C@H]2N1C(=O)Cn1nc(C(N)=O)c2cc(C#Cc3ncc(F)cn3)ccc21 [Compound T-177, (S)-1-((1R,3S,5R)-3-((6-bromo-3-methylpyridin-2-yl)carbamoyl)-2-(2-(3-carbamoyl-5-((5-fluoropyrimidin-2-yl)ethynyl)-1H-indazol-1-yl)acetyl)-2-azabicyclo[3.1.0]hexan-5-yl)-24-carboxy-3,12,21,26-tetraoxo-5,8,14,17-tetraoxa-2,11,20,25-tetraazatritetracontan-43-oic acid] |  | < 1 |  |
| CC(=O)c1nn(CC(=O)N2C[C@H](F)C[C@H]2C(=O)Nc2cccc(Br)n2)c2cc(S(C)(=N)=O)ccc12 (stereo partly drawn) [Compound T-5, (2S,4R)-1-(2-(3-acetyl-6-(S-methylsulfonimidoyl)-1H-indazol-1-yl)acetyl)-N-(6-bromopyridin-2-yl)-4-fluoropyrrolidine-2-carboxamide] | < 1 |  |  |
| CC(=O)c1nn(CC(=O)N2C[C@H](F)C[C@H]2C(=O)NCc2cccc(Cl)c2F)c2cc(OCP(=O)(O)O)ccc12 [Compound T-131, (((3-acetyl-1-(2-((2S,4R)-2-((3-chloro-2-fluorobenzyl)carbamoyl)-4-fluoropyrrolidin-1-yl)-2-oxoethyl)-1H-indazol-6-yl)oxy)methyl)phosphonic acid] |  | < 1 |  |
| CC(=O)c1cn(CC(=O)N2[C@H]3C[C@@]3(CN3CCN(C)CC3)C[C@H]2C(=O)NCc2cccc(Cl)c2F)c2cc(P(=O)(O)O)ccc12 [Compound T-45, (3-acetyl-1-(2-((1S,3S,5S)-3-((3-chloro-2-fluorobenzyl)carbamoyl)-5-((4-methylpiperazin-1-yl)methyl)-2-azabicyclo[3.1.0]hexan-2-yl)-2-oxoethyl)-1H-indol-6-yl)phosphonic acid] | 1 to 10 |  |  |
| CC(=O)c1cn(CC(=O)N2[C@H](C(=O)NCc3cccc(Cl)c3F)C[C@@]3(CN(C)C)C[C@@H]23)c2cc(P(C)(=O)O)ccc12 [Compound T-47, (3-acetyl-1-(2-((1R,3S,5R)-3-((3-chloro-2-fluorobenzyl)carbamoyl)-5-((dimethylamino)methyl)-2-azabicyclo[3.1.0]hexan-2-yl)-2-oxoethyl)-1H-indol-6-yl)(methyl)phosphinic acid] | < 1 |  |  |
| CCOP(=O)(CC)COc1ccc2c(C(C)=O)nn(CC(=O)N3C[C@H](F)C[C@H]3C(=O)Nc3nc(Br)ccc3C)c2c1 (stereo partly drawn) [Compound T-77, ethyl (((3-acetyl-1-(2-((2S,4R)-2-((6-bromo-3-methylpyridin-2-yl)carbamoyl)-4-fluoropyrrolidin-1-yl)-2-oxoethyl)-1H-indazol-6-yl)oxy)methyl)(ethyl)phosphinate] |  | < 1 |  |
| Cc1ccc(Br)nc1NC(=O)[C@@H]1C[C@@]2(C)C[C@H]2N1C(=O)Cc1ccc2[nH]nc(C(=O)O)c2c1 [Compound T-102, 5-(2-((1R,3S,5R)-3-((6-bromo-3-methylpyridin-2-yl)carbamoyl)-5-methyl-2-azabicyclo[3.1.0]hexan-2-yl)-2-oxoethyl)-1H-indazole-3-carboxylic acid] |  | 1 to 10 |  |

Further lines, with some results ahead:

| IC50 [1] [µM] | IC50 (Table 7, read-out: IC5 (Stars)) [µM] | SMILES | other results |
| --- | --- | --- | --- |
|  | 1 to 10 | Cc1ncc(-c2cc(CC(=O)N3C[C@H](F)C[C@H]3C(=O)Nc3cccc(Br)n3)cc(C(N)=O)c2)cn1 [Compound T-111, (2S,4R)-N-(6-bromopyridin-2-yl)-1-(2-(3-carbamoyl-5-(2-methylpyrimidin-5-yl)phenyl)acetyl)-4-fluoropyrrolidine-2-carboxamide] |  |
|  | 1 to 10 | Cc1ncc(-c2cc(CC(=O)N3C[C@H](F)C[C@H]3C(=O)Nc3cccc(-c4ccccc4Cl)c3F)cc(OCC(=O)O)c2)cn1 [Compound T-176, 2-(3-(2-((2S,4R)-2-((2′-chloro-2-fluoro-[1,1′-biphenyl]-3-yl)carbamoyl)-4-fluoropyrrolidin-1-yl)-2-oxoethyl)-5-(2-methylpyrimidin-5-yl)phenoxy)acetic acid] |  |
|  | < 1 | COc1cc(CC(=O)N2[C@H](C(=O)Nc3nc(Br)ccc3C)C[C@@]3(C)C[C@@H]23)cc(-c2cnc(O)nc2)c1 [Compound T-101, (1R,3S,5R)-N-(6-bromo-3-methylpyridin-2-yl)-2-(2-(3-(2-hydroxypyrimidin-5-yl)-5-methoxyphenyl)acetyl)-5-methyl-2-azabicyclo[3.1.0]hexane-3-carboxamide] |  |
| < 1 |  | NC(=O)c1cc(C(F)(F)F)n(CC(=O)N2C[C@H](F)C[C@H]2C(=O)Nc2cccc(Br)n2)n1 [Compound T-15, 1-(2-((2S,4R)-2-((6-bromopyridin-2-yl)carbamoyl)-4-fluoropyrrolidin-1-yl)-2-oxoethyl)-5-(trifluoromethyl)-1H-pyrazole-3-carboxamide] |  |
| 1 to 10 |  | CCOC(=O)/C=C/c1cn(CC(=O)N2C[C@H](F)C[C@H]2C(=O)Nc2cccc(Br)n2)nc1C(N)=O [Compound T-22, (E)-ethyl 3-(1-(2-((2S,4R)-2-((6-bromopyridin-2-yl)carbamoyl)-4-fluoropyrrolidin-1-yl)-2-oxoethyl)-3-carbamoyl-1H-pyrazol-4-yl)acrylate] |  |
| < 1 |  | CC(=O)c1cc(C(=O)NCc2cscn2)n(CC(=O)N2C[C@H](F)C[C@H]2C(=O)Nc2cccc(Br)n2)n1 [Compound T-24, 3-acetyl-1-(2-((2S,4R)-2-((6-bromopyridin-2-yl)carbamoyl)-4-fluoropyrrolidin-1-yl)-2-oxoethyl)-N-(thiazol-4-ylmethyl)-1H-pyrazole-5-carboxamide] |  |
|  | > 10 | COc1ncc(-c2cc(CC(=O)N3[C@H](C(=O)Nc4nc(Br)ccc4C)C[C@@]4(C)C[C@@H]34)cc(-c3cnc(OC)nc3)c2)cn1 [Compound T-109, (1R,3S,5R)-2-(2-(3,5-bis(2-methoxypyrimidin-5-yl)phenyl)acetyl)-N-(6-bromo-3-methylpyridin-2-yl)-5-methyl-2-azabicyclo[3.1.0]hexane-3-carboxamide] |  |
|  | 1 to 10 | Cc1ncc(-c2cc(C#N)cc(CC(=O)N3[C@H](C(=O)Nc4nc(Br)ccc4C)C[C@@]4(C)C[C@@H]34)c2)cn1 [Compound T-171, (1R,3S,5R)-N-(6-bromo-3-methylpyridin-2-yl)-2-(2-(3-cyano-5-(2-methylpyrimidin-5-yl)phenyl)acetyl)-5-methyl-2-azabicyclo[3.1.0]hexane-3-carboxamide] |  |
| 1 to 10 |  | NC(=O)c1nn(CC(=O)N2C[C@H](F)C[C@H]2C(=O)Nc2cccc(Br)n2)cc1/C=C/C(=O)NC1CC1 [Compound T-28, 1-(2-((2S,4R)-2-((6-bromopyridin-2-yl)carbamoyl)-4-fluoropyrrolidin-1-yl)-2-oxoethyl)-4-((E)-3-(cyclopropylamino)-3-oxoprop-1-en-1-yl)-1H-pyrazole-3-carboxamide] |  |
